Laboratory results published in US12257184B2, “Ocular device and drug delivery system, with case” (priority 2019, dated 2025).

Test: Ex vivo release of therapeutic agent from insert into phosphate buffer, UV scanning spectrophotometer
Format: physicochemical
Conditions: drug 20%, phosphate buffer pH 7, 37° C.
Protocol: Ocular Daily Wear is defined by FDA Class II CFR 866.5925 products currently indicated for ocular use and sclera tissue contact.
To begin testing, a UV scanning spectrophotometer concentration calibration curve for the therapeutic agent was established. The insert was prepared to the specification in the particular Table, and the time duration sample plan for measurement was determined. The insert was weighed to establish T=0. The insert was immersed in phosphate buffer of a fixed constant volume. A mean body temperature of 37° C. (e.g., from about 36.5° C. to about 37.5° C.) was simulated for the identified time interval. The insert was transferred and immersed at the end of each time period into a new phosphate buffer test container. The simulated mean 37° C.-body temperature was continued to next time interval. The UV scanning spectrophotometer data was generated for each time interval sample. The release rate was calculated versus time for the therapeutic agent, and graphical plots of the data were generated.

[1] = Table 8, Rod, 2 Component: EVA (40% vinyl acetate) 80%, no PEO
[2] = Table 8, In Device, 3 Component: EVA (40% vinyl acetate) 40%, PEO 40%
[3] = Table 9, In Device, 3 Component: EVA (40% vinyl acetate) 40%, PEO 40%

1 Day % Release [1] [%]	1 Day % Release [2] [%]	2 Day % Release [2] [%]	1 Day % Release (Table 8, In Device, 3 Component: EVA (40% vinyl acetate) 40%, PEO 40%, listed as dexamethasone phosphate) [%]	1 Day % Release [3] [%]	2 Day % Release [3] [%]	SMILES
1.89						CC(=O)OCC(=O)[C@@]1(O)[C@H](C)C[C@H]2[C@@H]3CCC4=CC(=O)C=C[C@]4(C)[C@@]3(F)[C@@H](O)C[C@@]21C [Dexamethasone 21 Acetate]
3.39	82.7	85.3	82.7			C[C@@H]1C[C@H]2[C@@H]3CCC4=CC(=O)C=C[C@]4(C)[C@@]3(F)[C@@H](O)C[C@]2(C)[C@@]1(O)C(=O)COP(=O)(O)O [Dexamethasone Phosphate]
				35	43	CN(C)CC/C=C1/c2ccccc2COc2ccc(CC(=O)O)cc21 [Olopatadine FB, Olopatadine]
